The supplement of paper PMC10331698
± gives the standard deviation of the averaged measurements.

Compound: O=C(O)C(F)(OC(F)(F)C(F)(F)C(F)(F)F)C(F)(F)F [Ammonium perfluoro-2-methyl-3-oxahexanoate] (in Water)
Experiment: level (log10 ratio to DMSO vehicle control); higher = higher biomarker level / cell amount than vehicle control
Procedure: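 BioMAP Diversity Plus panel of 12 human primary cell co-culture systems (3C, 4H, LPS, SAg, BT, BF4T, BE3C, CASM3C, HDF3CGF, KF3CT, MyoF, Mphg). Compounds were added 1 h before stimulation and left for 24 h (MyoF 48 h; BT 72 h for soluble read-outs or 6 d for IgG). Biomarkers were read by ELISA, cytotoxicity by SRB, PBMC viability and proliferation by Alamar Blue. Each well value was divided by the mean of 8 DMSO control wells on the same plate and log10 transformed; duplicate blinded samples were tested at 4 concentrations.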

Row | Test System | level (log10) (6700 nM) | level (log10) (20000 nM) | level (log10) (60000 nM)
1 | HDF3CGF:SRB | -0.033 ± 0.02 | -0.0325 ± 0.0021 | -0.0175 ± 0.011
2 | CASM3C:LDLR | -0.061 ± 0.057 | -0.032 ± 0.04 | -0.0545 ± 0.021
3 | HDF3CGF:Proliferation 72hr | 0.0575 ± 0.057 | 0.0635 ± 0.066 | -0.0255 ± 0.056
4 | CASM3C:M-CSF | -0.049 ± 0.016 | -0.0405 ± 0.0092 | -0.0405 ± 0.022
5 | lMphg:CCL3/MIP-1alpha | -0.0685 ± 0.035 | -0.067 ± 0.0014 | -0.0185 ± 0.054
6 | lMphg:SRB-Mphg | -0.0535 ± 0.036 | -0.046 ± 0.041 | -0.054 ± 0.041
7 | lMphg:IL-1alpha | 0.0825 ± 0.059 | 0.079 ± 0.055 | 0.11 ± 0.021
8 | MyoF:Collagen I | -0.0135 ± 0.061 | -0.024 ± 0.024 | -0.027 ± 0.031
9 | HDF3CGF:CXCL8/IL-8 | -0.0135 ± 0.015 | 0.001 ± 0.011 | 0.0045 ± 0.0035
10 | KF3CT:SRB | -0.004 | -0.005 ± 0.0014 | -0.0015 ± 0.005
11 | MyoF:CD106/VCAM-1 | 0.0105 ± 0.033 | 0.012 ± 0.011 | -0.011 ± 0.0099
12 | HDF3CGF:CCL2/MCP-1 | 0.011 ± 0.025 | 0.0285 ± 0.0021 | 0.019 ± 0.0028
13 | HDF3CGF:CXCL10/IP-10 | 0.002 ± 0.013 | -0.0085 ± 0.00071 | -0.0025 ± 0.012
14 | HDF3CGF:CD106/VCAM-1 | -0.039 ± 0.021 | -0.044 ± 0.027 | -0.131 ± 0.016
15 | lMphg:M-CSF | -0.084 ± 0.021 | -0.0725 ± 0.00071 | -0.0815 ± 0.011
16 | CASM3C:CCL2/MCP-1 | -0.0235 ± 0.021 | -0.034 ± 0.035 | -0.013 ± 0.013
17 | 3C:CCL2/MCP-1 | -0.003 ± 0.0085 | -0.004 ± 0.016 | 0.056 ± 0.05
18 | MyoF:Collagen III | 0.0135 ± 0.0035 | 0.006 ± 0.023 | -0.035 ± 0.034
19 | CASM3C:IL-6 | 0.0075 ± 0.005 | -0.052 ± 0.042 | -0.0375 ± 0.047
20 | BE3C:uPA | 0.033 ± 0.027 | 0.0315 ± 0.016 | 0.0245 ± 0.012
21 | MyoF:PAI-I | -0.0005 ± 0.005 | -0.0025 ± 0.0064 | -0.019 ± 0.011
22 | MyoF:Collagen IV | -0.013 ± 0.0057 | 0.0045 ± 0.011 | 0.0105 ± 0.012
23 | lMphg:CXCL8/IL-8 | 0.137 ± 0.0021 | 0.194 ± 0.0078 | 0.261 ± 0.025
24 | MyoF:SRB | 0.0095 ± 0.0035 | 0.013 ± 0.013 | 0.0085 ± 0.0035
25 | 3C:CD142/Tissue Factor | 0.0735 ± 0.012 | 0.0805 ± 0.0078 | 0.0805 ± 0.00071
26 | CASM3C:CD142/Tissue Factor | 0.022 ± 0.013 | -0.0045 ± 0.028 | -0.009 ± 0.089
27 | CASM3C:CD87/uPAR | -0.031 ± 0.076 | 0.0075 ± 0.011 | 0.014 ± 0.027

Row | Test System | level (log10) (6700 nM) | level (log10) (20000 nM) | level (log10) (60000 nM)
28 | KF3CT:MMP-9 | -0.008 ± 0.011 | 0.0415 ± 0.026 | 0.0695 ± 0.0035
29 | HDF3CGF:M-CSF | -0.0345 ± 0.00071 | -0.0245 ± 0.013 | -0.0595 ± 0.035
30 | MyoF:MMP-1 | -0.0025 ± 0.0064 | 0.0185 ± 0.0092 | -0.0095 ± 0.0064
31 | MyoF:CXCL8/IL-8 | -0.0355 ± 0.032 | -0.0385 ± 0.011 | -0.045 ± 0.011
32 | 3C:CD62E/E-Selectin | 0.0025 ± 0.005 | 0.0105 ± 0.011 | 0.011 ± 0.011
33 | BE3C:tPA | -0.101 ± 0.047 | -0.0935 ± 0.021 | -0.0945 ± 0.021
34 | HDF3CGF:TIMP-2 | 0.0405 ± 0.07 | 0.0435 ± 0.013 | -0.0185 ± 0.079
35 | CASM3C:HLA-DR | 0.0195 ± 0.054 | 0.01 ± 0.059 | 0.004 ± 0.0071
36 | CASM3C:PAI-I | -0.007 ± 0.0085 | -0.0005 ± 0.0092 | -0.0025 ± 0.013
37 | BE3C:PAI-I | -0.0995 ± 0.057 | -0.092 ± 0.044 | -0.124 ± 0.012
38 | CASM3C:Serum Amyloid A | -0.031 ± 0.04 | -0.034 ± 0.03 | -0.0005 ± 0.049
39 | KF3CT:PAI-I | -0.0455 ± 0.012 | -0.0695 ± 0.0078 | -0.054 ± 0.02
40 | MyoF:bFGF | 0.017 ± 0.0099 | 0.006 ± 0.0014 | 0.0005 ± 0.0092
41 | HDF3CGF:Collagen I | -0.029 ± 0.031 | 0.0015 ± 0.005 | -0.0095 ± 0.0092
42 | BE3C:SRB | -0.003 ± 0.0042 | 0 ± 0.0014 | 0.003 ± 0.0099
43 | 3C:CD54/ICAM-1 | -0.0255 ± 0.0092 | 0.0065 ± 0.00071 | 0.0055 ± 0.011
44 | lMphg:sIL-10 | -0.36 ± 0.035 | -0.328 ± 0.018 | -0.467 ± 0.13
45 | lMphg:CD62E/E-Selectin | 0.013 ± 0.0071 | 0.002 ± 0.0071 | 0.0245 ± 0.013
46 | BE3C:MMP-1 | 0.0325 ± 0.032 | 0.062 ± 0.038 | 0.136 ± 0.013
47 | CASM3C:CD141/Thrombomodulin | 0.113 ± 0.0057 | 0.0435 ± 0.11 | 0.035 ± 0.038
48 | lMphg:CCL2/MCP-1 | 0.0165 ± 0.005 | 0.0125 ± 0.012 | 0.038 ± 0.027
49 | HDF3CGF:EGFR | -0.017 ± 0.014 | 0.0145 ± 0.026 | 0.0535 ± 0.005
50 | KF3CT:TIMP-2 | -0.0005 ± 0.037 | -0.002 ± 0.025 | 0.022 ± 0.027
51 | MyoF:alpha-SM Actin | 0.001 ± 0.011 | 0.0005 ± 0.022 | -0.0035 ± 0.0035
52 | lMphg:CD40 | -0.0295 ± 0.0064 | -0.045 ± 0.0099 | -0.049 ± 0.011
53 | KF3CT:uPA | -0.0275 ± 0.043 | -0.009 ± 0.0099 | -0.0175 ± 0.019
54 | 3C:CD106/VCAM-1 | -0.0065 ± 0.0035 | -0.0245 ± 0.0035 | -0.0155 ± 0.00071

Row | Test System | level (log10) (6700 nM) | level (log10) (20000 nM) | level (log10) (60000 nM)
55 | HDF3CGF:Collagen III | -0.0055 ± 0.0064 | -0.015 ± 0.041 | -0.0705 ± 0.028
56 | HDF3CGF:CXCL9/MIG | -0.011 ± 0.028 | -0.02 ± 0.014 | -0.016 ± 0.064
57 | CASM3C:CXCL8/IL-8 | 0.005 ± 0.0042 | 0.034 ± 0.024 | 0.056 ± 0.024
58 | KF3CT:CXCL9/MIG | -0.007 ± 0.011 | 0.0025 ± 0.00071 | 0.0005 ± 0.0021
59 | lMphg:CD106/VCAM-1 | -0.0195 ± 0.0035 | -0.013 ± 0.0028 | -0.0085 ± 0.0035
60 | MyoF:Decorin | -0.048 ± 0.023 | -0.02 ± 0.0085 | -0.024 ± 0.013
61 | BE3C:Keratin 8/18 | -0.042 ± 0.0042 | -0.019 ± 0.024 | -0.0165 ± 0.0092
62 | CASM3C:Proliferation | -0.07 ± 0.085 | -0.095 ± 0.02 | -0.104 ± 0.065
63 | HDF3CGF:MMP-1 | 0.0035 ± 0.016 | 0.011 | 0.008 ± 0.0085
64 | lMphg:CD69 | -0.0435 ± 0.011 | 0 ± 0.013 | -0.0185 ± 0.015
65 | CASM3C:SRB | -0.007 ± 0.0057 | -0.008 ± 0.0014 | -0.0105 ± 0.0064
66 | HDF3CGF:CXCL11/I-TAC | 0.002 ± 0.0057 | -0.0045 ± 0.019 | 0.002 ± 0.0099
67 | MyoF:TIMP-1 | -0.0395 ± 0.0092 | -0.0635 ± 0.015 | -0.068 ± 0.0028
68 | HDF3CGF:PAI-I | -0.0825 ± 0.052 | -0.0995 ± 0.013 | -0.051 ± 0.054
69 | HDF3CGF:TIMP-1 | 0.025 ± 0.0028 | 0.014 ± 0.024 | -0.0135 ± 0.0064
70 | KF3CT:CD54/ICAM-1 | 0.022 ± 0.0099 | 0.029 ± 0.0071 | 0.017 ± 0.0057
71 | CASM3C:CD106/VCAM-1 | -0.0955 ± 0.061 | -0.0645 ± 0.005 | -0.083 ± 0.011
72 | KF3CT:IL-1alpha | -0.001 ± 0.0071 | 0.011 ± 0.0014 | -0.0355 ± 0.044
73 | CASM3C:CXCL9/MIG | 0.039 ± 0.038 | 0.05 ± 0.0071 | 0.0595 ± 0.015
74 | BE3C:MMP-9 | -0.109 ± 0.051 | -0.09 ± 0.03 | -0.063 ± 0.035
75 | KF3CT:CXCL10/IP-10 | -0.017 ± 0.0085 | 0.004 ± 0.0057 | 0.005 ± 0.0042
76 | HDF3CGF:CD54/ICAM-1 | -0.0075 ± 0.015 | -0.0245 ± 0.005 | -0.0555 ± 0.012
77 | 3C:CD141/Thrombomodulin | -0.0395 ± 0.03 | -0.0315 ± 0.011 | -0.057 ± 0.0028
78 | KF3CT:CXCL8/IL-8 | 0.0175 ± 0.036 | 0.0135 ± 0.00071 | 0.0165 ± 0.0092
79 | lMphg:SRB | -0.043 ± 0.0014 | -0.0435 ± 0.00071 | -0.0395 ± 0.0035
80 | KF3CT:CCL2/MCP-1 | 0.086 ± 0.0057 | 0.088 ± 0.023 | 0.0775 ± 0.018
